Source: patent US9345247B2, “Azaindole carboxylic acid amides and azaindole thiocarboxylic acid amides for use as insecticides and acaricides” (BAYER CROPSCIENCE AG, priority 2012, dated 2016)
Where two headings read alike, the source gives them in different places. One block for each compound: values may come before it.

Assays:
[1] = tested on: Lucilia cuprina larvae; assay: Lucilia cuprina test (LUCICU); type: in vivo; conditions: 100 ppm, after 2 days
Description: (§1) Lucilia cuprina Test (LUCICU) [table] To produce a suitable active compound formulation, 10 mg of active compound are mixed with 0.5 ml of dimethyl sulfoxide, and the concentrate is diluted with water to the desired concentration. Vessels containing horse meat treated with the active compound formulation of the desired concentration are populated with about 20 Lucilia cuprina larvae. After 2 days, the kill in % is determined 100% means that all the larvae have been killed; 0% means that none of the larvae have been killed.

[2] = tested on: Ctenocephalides felis; assay: Ctenocephalides felis; oral (CTECFE); type: in vivo; conditions: 100 ppm, oral in cattle blood, after 2 days
Description: Ctenocephalides felis; Oral (CTECFE)
To produce a suitable active compound formulation, 10 mg of active compound are mixed with 0.5 ml of dimethyl sulphoxide. A portion of the concentrate is diluted with citrated cattle blood, and the desired concentration is prepared.
About 20 unfed adult fleas (Ctenocephalides felis) are placed into a chamber which is closed at the top and bottom with gauze. A metal cylinder whose bottom end is closed with parafilm is placed onto the chamber. The cylinder contains the blood/active compound preparation, which can be imbibed by the fleas through the parafilm membrane.
After 2 days, the kill in % is determined 100% means that all fleas have been killed; 0% means that none of the fleas have been killed.

[3] = tested on: larvae of the mustard beetle (Phaedon cochleariae); assay: Phaedon cochleariae spray test (PHAECO); type: in vivo; conditions: for pest or weed control at 100 g/ha / efficacy: spray, after 7 days, 100 g/ha; for pest or weed control at 100 g/ha: read-out: efficacy
Description: Phaedon cochleariae—Spray Test (PHAECO)
(§2) To produce a suitable preparation of active compound, 1 part by weight of active compound is mixed with the stated amounts of solvent and emulsifier, and the concentrate is diluted with emulsifier-containing water to the desired concentration.
Discs of Chinese cabbage leaves (Brassica pekinensis) are sprayed with an active compound formulation of the desired concentration and, after drying, populated with larvae of the mustard beetle (Phaedon cochleariae).
After 7 days, the efficacy in % is determined. 100% means that all the beetle larvae have been killed; 0% means that no beetle larvae have been killed.
After the stated period of time, the effect in % is determined 100% means that all the beetle larvae have been killed; 0% means that no beetle larvae have been killed.

[4] = tested on: adult Musca domestica; assay: Musca domestica test (MUSCDO); type: in vivo; conditions: 100 ppm, after 2 days
Description: as §1, with “Musca domestica” for “Lucilia cuprina”, “(MUSCDO)” for “(LUCICU)”, “a sponge” for “horse meat”, “adult Musca domestica.” for “about 20 Lucilia cuprina larvae.”, “flies” for “the larvae”, “no flies” for “none of the larvae”

[5] = tested on: Boophilus microplus; assay: Boophilus microplus test (BOOPMI injection); type: in vivo; conditions: 20 μg/animal, after 7 days
Description: Boophilus microplus Test (BOOPMI Injection) [table] To produce a suitable active compound formulation, 10 mg of active compound are mixed with 0.5 ml of solvent and the concentrate is diluted with solvent to the desired concentration. The active compound solution is injected into the abdomen (Boophilus microplus), and the animals are transferred into dishes and stored in a climate-controlled room. After 7 days, the efficacy in % is determined. The activity is assessed by laying of fertile eggs. 100% means that none of the ticks has laid any fertile eggs.

[6] = tested on: caterpillars of the armyworm (Spodoptera frugiperda); assay: Spodoptera frugiperda spray test (SPODFR); type: in vivo; conditions: for efficacy: 100 g/ha, spray, after 7 days
Description: Spodoptera frugiperda—Spray Test (SPODFR)
(§3) To produce a suitable active compound formulation, 1 part by weight of active compound is mixed with the stated amounts of solvent and emulsifier, and the concentrate is diluted with emulsifier-containing water to the desired concentration.
Leaf discs of maize (Zea mays) are sprayed with an active compound formulation of the desired concentration and, after drying, populated with caterpillars of the armyworm (Spodoptera frugiperda).
After 7 days, the efficacy in % is determined. 100% means that all the caterpillars have been killed; 0% means that no caterpillars have been killed.
as §2
Leaf discs of maize (Zea mays) are sprayed with an active compound preparation of the desired concentration and, after drying, populated with caterpillars of the armyworm (Spodoptera frugiperda).
After the stated period of time, the effect in % is determined. 100% means that all the caterpillars have been killed; 0% means that no caterpillars have been killed.

[7] = log P by HPLC on reversed-phase column (C18), EEC directive 79/831 Annex V.A8; type: physicochemical; conditions: for chromatographic logP: reversed-phase HPLC column (C18)
Description: a) The determination of the W by LC-MS in the acidic range is effected at pH 2.7, acetonitrile (contains 0.1% formic acid) and water as eluents; linear gradient from 10% acetonitrile to 95% acetonitrile, instrument: Agilent 1100 LC-System, Agilent MSD System, HTS PAL. The log P values reported in the tables and Preparation Examples above were determined in accordance with EEC directive 79/831 Annex V.A8 by HPLC (High Performance Liquid Chromatography) using a reversed-phase column (C18). Temperature 43° C. The calibration is effected with unbranched alkan-2-ones (having 3 to 16 carbon atoms), for which the log P values are known.

[8] = tested on: greenhouse red spider mite (Tetranychus urticae); assay: Tetranychus urticae spray test, OP-resistant (TETRUR); type: in vivo; conditions: for efficacy: 100 g/ha, spray, after 6 days
Description: as §3
Discs of bean leaves (Phaseolus vulgaris) infested by all stages of the greenhouse red spider mite (Tetranychus urticae) are sprayed with an active compound formulation of the desired concentration.
After 6 days, the efficacy in % is determined 100% means that all the spider mites have been killed; 0% means that none of the spider mites have been killed. […]

[9] = HPLC, acidic range pH 2.7, 43° C.
[10] = HPLC, acidic range pH 2.7, 43° C., read-out: log p

- chromatographic logP ([7]; pH 2.7, final compounds of the synthesis examples, read-out: log P (HPLC-MS)): 3.52
SMILES: CCn1c(C(=O)NC(c2cccc(C(F)(F)F)c2)C(F)(F)F)cc2cc(C(=O)NC3CC3)c(C)nc21 (centres unmarked) [Compound 1, N^5-Cyclopropyl-1-ethyl-6-methyl-N^2-{2,2,2-trifluoro-1-[3-(trifluoromethyl)phenyl]ethyl}-1H-pyrrolo[2,3-b]pyridine-2,5-dicarboxamide]
- efficacy (kill) [1]: 100%
- efficacy (kill) [2]: 100%
- pest or weed control at 100 g/ha ([3]; Phaedon cochleariae, 168 h): 100%
- efficacy (kill) [4]: 100%
- efficacy (laying of fertile eggs) [5]: 100%
- efficacy [6]: 100%
- efficacy [8]: 90%

SMILES: CCn1c(C(=O)NC(c2cccc(C(F)(F)F)c2)C(F)(F)F)cc2cc(C(=O)NC3CC3)c(Cl)nc21 (centres unmarked) [Compound 12]
- efficacy (kill) [1]: 100%
- efficacy (kill) [2]: 100%
- efficacy [3]: 100%
- efficacy (kill) [4]: 100%
- efficacy (laying of fertile eggs) [5]: 100%
- efficacy [6]: 100%
- log p [7, 9]: 3.70
- efficacy [8]: 100%

SMILES: CCn1c(C(=O)NC(c2ccc(F)c(Cl)c2)C(F)(F)F)cc2cc(C(=O)NC3CC3)c(Cl)nc21 (centres unmarked) [Compound 16]
- efficacy (kill) [1]: 100%
- efficacy (kill) [2]: 100%
- efficacy [3]: 100%
- efficacy (kill) [4]: 100%
- efficacy (laying of fertile eggs) [5]: 100%
- log p [7, 9]: 3.61
- efficacy [8]: 90%

SMILES: Cn1c(C(=O)NC(c2cccc(C(F)(F)F)c2)C(F)(F)F)cc2cc(C(=O)NC3CC3)c(Cl)nc21 (centres unmarked) [Compound 22]
- efficacy (kill) [1]: 100%
- efficacy (kill) [2]: 95%
- pest or weed control at 100 g/ha ([3]; Phaedon cochleariae, 168 h): 100%
- percent efficacy (larval mortality) at 0.8 g/ha ([3]; Phaedon cochleariae, 168 h, PHAECO, 0.8 g of ai/ha, 7 d, read-out: % Efficacy dat): 100%
- efficacy (kill) [4]: 100%
- efficacy (laying of fertile eggs) [5]: 100%
- efficacy [6]: 100%
- Emax at 4 g/ha ([6]; Spodoptera frugiperda, 168 h, SPODFR, 4 g of ai/ha, 7 d, read-out: % Efficacy dat): 100%
- chromatographic logP [7, 10]: 3.4
- efficacy [8]: 100%
- Emax at 4 g/ha ([8]; Tetranychus urticae, 144 h, TETRUR, 4 g of ai/ha, 6 d, read-out: % Efficacy dat): 90%

SMILES: CCn1c(C(=O)NC(c2cc(Cl)c(F)c(Cl)c2)C(F)(F)F)cc2cc(C(=O)NC3(C#N)CC3)c(Cl)nc21 (centres unmarked) [Compound 27]
- efficacy (kill) [1]: 100%
- efficacy (kill) [2]: 100%
- efficacy [3]: 100%
- efficacy (kill) [4]: 100%
- efficacy (laying of fertile eggs) [5]: 100%
- efficacy [6]: 100%
- log p [7, 9]: 4.11
- efficacy [8]: 100%

SMILES: CCn1c(C(=O)NC(c2cc(Cl)cc(Cl)c2)C(F)(F)F)cc2cc(C(=O)NC3CC3)c(Cl)nc21 (centres unmarked) [Compound 28]
- efficacy (kill) [1]: 100%
- efficacy (kill) [2]: 95%
- efficacy [3]: 100%
- efficacy (kill) [4]: 100%
- efficacy (laying of fertile eggs) [5]: 100%
- efficacy [6]: 100%

SMILES: CCn1c(C(=O)NC(c2ccc(F)c(C(F)(F)F)c2)C(F)(F)F)cc2cc(C(=O)NC3CC3)c(Cl)nc21 (centres unmarked) [Compound 29]
- efficacy (kill) [1]: 100%
- efficacy (kill) [2]: 95%
- efficacy [3]: 100%
- efficacy (kill) [4]: 100%
- efficacy (laying of fertile eggs) [5]: 100%
- efficacy [6]: 100%
- efficacy [8]: 90%

SMILES: CCn1c(C(=O)NC(c2ccc(Cl)c(Cl)c2)C(F)(F)F)cc2cc(C(=O)NC3(C#N)CC3)c(Cl)nc21 (centres unmarked) [Compound 32]
- efficacy (kill) [1]: 100%
- efficacy (kill) [2]: 100%
- efficacy [3]: 100%
- efficacy (kill) [4]: 100%
- efficacy (laying of fertile eggs) [5]: 100%
- efficacy [6]: 100%
- log p [7, 9]: 3.94
- efficacy [8]: 100%

- log p [7, 9]: 4.08
SMILES: CCn1c(C(=O)NC(c2cccc(C(F)(F)F)c2)C(F)(F)F)cc2cc(C(=O)NCC(F)(F)F)c(Cl)nc21 (centres unmarked) [Compound 41]
- efficacy (kill) [1]: 100%
- efficacy (kill) [2]: 100%
- efficacy [3]: 100%
- efficacy (kill) [4]: 100%
- efficacy (laying of fertile eggs) [5]: 100%
- efficacy [6]: 100%

SMILES: CCn1c(C(=O)NC(c2cccc(C(F)(F)F)c2)C(F)(F)F)cc2cc(C(=O)NCC#N)c(Cl)nc21 (centres unmarked) [Compound 42]
- efficacy (kill) [1]: 100%
- efficacy (kill) [2]: 100%
- pest or weed control at 100 g/ha ([3]; Phaedon cochleariae, 168 h): 100%
- efficacy (kill) [4]: 100%
- efficacy (laying of fertile eggs) [5]: 100%
- chromatographic logP [7, 10]: 3.5
- efficacy [8]: 90%
- Emax at 100 g/ha ([8]; Tetranychus urticae, 144 h, TETRUR, 100 g of ai/ha, 6 d, read-out: % Efficacy dat): 90%

SMILES: CCn1c(C(=O)NC(c2ccc(F)c(C(F)(F)F)c2)C(F)(F)F)cc2cc(C(=O)NC3(C#N)CC3)c(Cl)nc21 (centres unmarked) [Compound 53]
- efficacy (kill) [1]: 100%
- efficacy (kill) [2]: 100%
- efficacy [3]: 100%
- efficacy (kill) [4]: 100%
- efficacy (laying of fertile eggs) [5]: 100%
- efficacy [6]: 100%
- log p [7, 9]: 3.77
- efficacy [8]: 100%

SMILES: CCn1c(C(=O)NC(c2ccc(F)c(Cl)c2)C(F)(F)F)cc2cc(C(=O)NCc3ccccn3)c(Cl)nc21 (centres unmarked) [Compound 58]
- efficacy (kill) [1]: 100%
- efficacy (kill) [2]: 100%
- efficacy [3]: 100%
- efficacy (laying of fertile eggs) [5]: 100%
- log p [7, 9]: 3.17
- efficacy [8]: 100%

SMILES: CCn1c(C(=O)NC(c2cc(Cl)c(F)c(Cl)c2)C(F)(F)F)cc2cc(C(=O)NCc3ccccn3)c(Cl)nc21 (centres unmarked) [Compound 60]
- efficacy (kill) [1]: 100%
- efficacy (kill) [2]: 95%
- efficacy [3]: 100%
- efficacy (laying of fertile eggs) [5]: 100%
- log p [7, 9]: 3.67
- efficacy [8]: 90%

SMILES: CCn1c(C(=O)NC(c2cc(Cl)c(F)c(Cl)c2F)C(F)(F)F)cc2cc(C(=O)NC3(C(N)=S)CC3)c(Cl)nc21 (centres unmarked) [Compound 63]
- efficacy (kill) [1]: 100%
- efficacy (kill) [2]: 100%
- efficacy [3]: 100%
- efficacy (kill) [4]: 100%
- efficacy (laying of fertile eggs) [5]: 100%
- efficacy [6]: 100%
- log p [7, 9]: 4.20
- efficacy [8]: 90%

SMILES: CCn1c(C(=O)NC(c2cc(Cl)c(F)c(Cl)c2)C(F)(F)F)cc2cc(C(=O)NC3(C(N)=S)CC3)c(Cl)nc21 (centres unmarked) [Compound 64]
- efficacy (kill) [1]: 100%
- efficacy (kill) [2]: 100%
- efficacy [3]: 100%
- efficacy (kill) [4]: 100%
- efficacy (laying of fertile eggs) [5]: 100%
- efficacy [6]: 100%
- log p [7, 9]: 3.97
- efficacy [8]: 100%

SMILES: CCn1c(C(=O)NC(c2ccc(F)c(Cl)c2)C(F)(F)F)cc2cc(C(=O)NC3(C(N)=S)CC3)c(Cl)nc21 (centres unmarked) [Compound 65]
- efficacy (kill) [1]: 100%
- efficacy (kill) [2]: 100%
- efficacy [3]: 100%
- efficacy (kill) [4]: 80%
- efficacy (laying of fertile eggs) [5]: 100%
- efficacy [6]: 100%
- log p [7, 9]: 3.51
- efficacy [8]: 90%
